{"source": "paper PMC2680940", "about": "(Biochemistry, 2009)", "key": {"[1]": {"biological_target": "T1, 4-chlorobenzoate:CoA ligase (CBL) (Alcaligenes sp. AL3007, UniProt Q8GN86, D402A)", "T1 sequence (Q8GN86 1-504 D402A)": "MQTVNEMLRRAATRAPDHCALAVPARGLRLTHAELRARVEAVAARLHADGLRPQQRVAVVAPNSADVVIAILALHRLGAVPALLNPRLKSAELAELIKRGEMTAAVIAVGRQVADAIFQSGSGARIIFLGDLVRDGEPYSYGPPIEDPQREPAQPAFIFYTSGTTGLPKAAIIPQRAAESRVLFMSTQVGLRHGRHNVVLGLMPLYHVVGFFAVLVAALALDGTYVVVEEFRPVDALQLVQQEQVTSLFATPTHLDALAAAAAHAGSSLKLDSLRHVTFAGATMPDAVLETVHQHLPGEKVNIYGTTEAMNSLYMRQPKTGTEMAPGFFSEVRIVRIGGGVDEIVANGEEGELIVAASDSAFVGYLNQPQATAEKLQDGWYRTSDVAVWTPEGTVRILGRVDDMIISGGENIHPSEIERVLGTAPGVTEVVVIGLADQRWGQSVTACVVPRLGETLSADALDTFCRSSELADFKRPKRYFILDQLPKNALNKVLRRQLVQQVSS", "assay": "continuous spectrophotometric assay at […] nm, initial velocity", "format": "biochemical", "settings": "20 μM 4-CB, 10 mM CoA, 15 mM MgCl2, 50 mM K+HEPES pH 7.5, 25 °C"}, "[2]": {"biological_target": "T2, 4-chlorobenzoate:CoA ligase (CBL) (Alcaligenes sp. AL3007, UniProt Q8GN86, D402P)", "T2 sequence (Q8GN86 1-504 D402P)": "T1 sequence (Q8GN86 1-504 D402A)", "assay": "continuous spectrophotometric assay at […] nm, initial velocity", "format": "biochemical", "settings": "20 μM 4-CB, 10 mM CoA, 15 mM MgCl2, 50 mM K+HEPES pH 7.5, 25 °C"}}}
{"smiles": "Nc1ncnc2c1ncn2[C@@H]1O[C@H](COP(=O)(O)OP(=O)(O)OP(=O)(O)O)[C@@H](O)[C@H]1O", "note": "[ATP, adenosine-5′-triphosphate]", "values": [{"measurement": "Km", "setting": "[1]", "result": "28.1 ± 0.9", "unit": "µM"}, {"measurement": "Km", "setting": "[2]", "result": "13.1 ± 0.7", "unit": "µM"}]}
